Where a name gives a salt, the structure may show the parent alone.

The subject of experiment [1] is experimental hyperlipemia induced by Triton (rats). Nature of the experiment: Activity on the experimental hyperlipemia induced by Triton. It counts as in vivo. The settings on record: rat, Triton 300 mg/kg i.p., 18 hours. Here is the method:
EXAMPLE XV-ACTIVITY ON THE EXPERIMENTAL HYPERLIPEMIA INDUCED BY TRITON
Groups of 10 fasted rats weighing about 200 g are treated with an intraperitoneal injection of Triton at a dose of 300 mg/kg; immediately afterwards, the products are administered orally.
After 18 hours, the cholesterol and triglycerides are determined.

For experiment [2], the system named is rats rendered hyperlipemic with olive oil. Description: Hypolipemic activity in rats rendered hyperlipemic with olive oil. The class given is in vivo. To be noted: rat, atherogenic diet enriched with olive oil. Here is the method: EXAMPLE XVI-HYPOLIPEMIC ACTIVITY IN RATS RENDERED HYPERLIPEMIC WITH OLIVE OIL
A group of rats is placed on an atherogenic hyperlipemic diet enriched with olive oil and the animals are then treated per os. The cholesterol and triglycerides are then determined as in the previous example. […]

Experiment [3] has as its target T1, 3-hydroxy-3-methylglutaryl coenzyme A reductase (Rattus norvegicus, UniProt P51639).
T1 sequence (P51639 1-887): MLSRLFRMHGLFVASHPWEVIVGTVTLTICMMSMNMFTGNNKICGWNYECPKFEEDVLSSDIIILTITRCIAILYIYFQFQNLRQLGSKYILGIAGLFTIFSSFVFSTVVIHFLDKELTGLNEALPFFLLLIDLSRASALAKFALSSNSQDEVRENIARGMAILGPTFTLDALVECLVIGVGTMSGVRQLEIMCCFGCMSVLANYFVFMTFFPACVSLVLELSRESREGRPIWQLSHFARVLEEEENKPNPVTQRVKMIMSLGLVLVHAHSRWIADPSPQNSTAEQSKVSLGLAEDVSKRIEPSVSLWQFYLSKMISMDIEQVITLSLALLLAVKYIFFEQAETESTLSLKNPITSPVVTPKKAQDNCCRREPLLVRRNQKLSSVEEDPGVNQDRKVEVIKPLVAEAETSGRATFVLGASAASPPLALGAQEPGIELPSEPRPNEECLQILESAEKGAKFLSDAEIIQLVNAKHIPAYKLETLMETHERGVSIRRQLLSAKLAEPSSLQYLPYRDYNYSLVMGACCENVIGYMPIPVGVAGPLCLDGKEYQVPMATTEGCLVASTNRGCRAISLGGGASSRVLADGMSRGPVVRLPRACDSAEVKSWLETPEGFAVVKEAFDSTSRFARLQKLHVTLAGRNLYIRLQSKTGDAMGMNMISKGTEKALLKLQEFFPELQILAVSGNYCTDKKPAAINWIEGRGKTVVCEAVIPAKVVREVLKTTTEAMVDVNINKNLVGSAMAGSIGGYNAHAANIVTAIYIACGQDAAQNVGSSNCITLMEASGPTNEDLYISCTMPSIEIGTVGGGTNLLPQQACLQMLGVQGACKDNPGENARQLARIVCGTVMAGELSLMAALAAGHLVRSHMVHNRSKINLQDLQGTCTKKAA
Description: Inhibitory activity towards 3-hydroxy-3-methylglutaryl coenzyme A reductase (method of Shefer et al.). The class given is biochemical. The text has this:
EXAMPLE XVII-DETERMINATION OF THE INHIBITORY ACTIVITY OF THE COMPOUNDS TOWARDS 3-HYDROXY-3-METHYLGLUTARYL COENZYME A REDUCTASE
The method used is the one described by Shefer et al. (J. Lipid Res. 1972, 13, 402); cf. also Stokker (J. Med. Chem. 1985, 28, 357).

In another experiment the test system is cholesterol synthesis. To be noted: cited from earlier work.
[4] abbreviates: oral 150 mg/kg, listed as Ex. I.
The mark [5] stands for this setting: per os 100 mg/kg, listed as Ex. I.
[6] abbreviates: oral 150 mg/kg, listed as Ex. IV.
Where [7] appears, read: per os 100 mg/kg, listed as Ex. IV.
Setting [8] is: oral 150 mg/kg, listed as Ex. III.
[9] abbreviates: per os 100 mg/kg, listed as Ex. III.

A word on the IC50: it is the concentration that gives 50% inhibition. Read a high IC50 as a need for much substance. Turning to `CC1CC(OC(=O)[C@@H]2CCC(=O)N2)CC(C)(C)C1` (single isomer, unassigned) [Example I, 3,3,5-Trimethylcyclohexyl L-pyroglutamate], the Cholesterol level amounted to 2.80 g/L in experiment [1] (oral 50 mg/kg), 1.95 g/L in experiment [1] (setting [4]), 1.73 g/L in experiment [2] (per os 25 mg/kg) and 1.50 g/L in experiment [2] (setting [5]). The Triglyceride level in experiment [1] (oral 50 mg/kg) was found to be 1.46 g/L; in experiment [1] (setting [4]) it was 0.93 g/L; in experiment [2] (per os 25 mg/kg), 1.39 g/L; in experiment [2] (setting [5]), 0.80 g/L. In experiment [3], this compound came in with an IC50 of 100 nM.
Consider `CC1CC(OC(=O)[C@@H]2CCC(=O)N2)CC(C)(C)C1` (single isomer, unassigned) [Example IV, 3,3,5-TRIMETHYLCYCLOHEXYL PYROGLUTAMATE], for which, in experiment [1] (setting [6]), the Cholesterol level came to 2.15 g/L and the Triglyceride level came to 0.85 g/L. Moreover, in experiment [2] (setting [7]), the Cholesterol level came out at 1.47 g/L and the Triglyceride level turned out to be 0.80 g/L. In experiment [3], this compound registered an IC50 of 150 nM.
In the case of `CN(C)CCCN(C)[C@H]1CC[C@H]2[C@@H]3CC=C4C[C@@H](O)CC[C@]4(C)[C@H]3CC[C@]12C` [20, 25-Diazacholesterol], the inhibits cholesterol synthesis result in the experiment with cholesterol synthesis was “inhibits cholesterol synthesis”.
In experiment [1] (setting [8]), `CC1CC(OC(=O)[C@@H]2CCC(=O)N2)CC(C)(C)C1` (some centres unmarked) [Example III, 3,3,5-trimethylcyclohexyl pyroglutamate] came in with a Cholesterol level of 2.00 g/L and a Triglyceride level of 1.10 g/L. In experiment [2] (setting [9]), the Cholesterol level came out at 1.47 g/L and the Triglyceride level is 1.01 g/L.
For the compound `CC1CC(C)CC(OC(=O)[C@@H]2CCC(=O)N2)C1` (stereo partly drawn) [Example IX, L-Pyroglutamate of 3,5-dimethylcyclohexanol], in experiment [1] (oral 150 mg/kg), the Cholesterol level was determined as 2.10 g/L and the Triglyceride level was determined as 1.30 g/L. Further, the IC50 in experiment [3] came to 400 nM.
In experiment [1] (oral 150 mg/kg), `CC1CC(OC(=O)[C@@H](N)CCC(N)=O)CC(C)(C)C1` (stereo partly drawn) [Example V, trans-3,3,5-trimethylcyclohexyl L-γ-amidoglutamate hydrochloride] showed a Cholesterol level of 1.95 g/L and a Triglyceride level of 1.15 g/L. For the same compound, in experiment [2] (per os 100 mg/kg), the Cholesterol level came to 1.62 g/L and the Triglyceride level worked out at 0.92 g/L. The compound further registered a concentration for half-maximal inhibition (IC50) in experiment [3] of 80 nM.
Consider `CC1CC(OC(=O)[C@@H](N)CCC(=O)O)CC(C)(C)C1` (stereo partly drawn) [Example VI, TRANS-3,3,5-TRIMETHYLCYCLOHEXYL L-α-GLUTAMATE HYDROCHLORIDE], for which, in experiment [1] (oral 150 mg/kg), the Cholesterol level was 2.50 g/L and the Triglyceride level stood at 2.00 g/L. In experiment [3], this compound registered an IC50 of 120 nM.
The corresponding values for `CC(=O)N[C@@H](CC(=O)O)C(=O)OC1CC(C)CC(C)(C)C1` (stereo partly drawn) [Example VII, MAGNESIUM SALT OF 3,3,5-TRIMETHYLCYCLOHEXYL N-ACETYL-L-α-ASPARTATE] are 3.00 g/L, 2.70 g/L and 500 nM.
In experiment [3], `O=C1CC[C@@H](C(=O)OC2CCCCC2)N1` [Example VIII, L-Pyroglutamate of cyclohexanol] came in with an IC50 of 550 nM. This lies in the sub-micromolar range.
`CC1CCCC(C)C1OC(=O)[C@@H]1CCC(=O)N1` (stereo partly drawn) [Example X, L-Pyroglutamate of 2,6-dimethylcyclohexanol]: in experiment [3], the IC50 came to 400 nM. This IC50 and that of the compound before are within 1.5-fold of each other.
In experiment [1] (oral 150 mg/kg), `CC1=CC(OC(=O)[C@@H]2CCC(=O)N2)CC(C)(C)C1` (stereo partly drawn) [Example XI, L-Pyroglutamate of 3,5,5-trimethylcyclohex-2-en-1-ol] showed a Cholesterol level of 2.00 g/L and a Triglyceride level of 1.92 g/L. Further, the 50% inhibitory concentration (IC50) in experiment [3] was determined as 130 nM.
Compound `CC1(OC(=O)[C@@H]2CCC(=O)N2)CCCC1` [Example XII, L-Pyroglutamate of 1-methylcyclopentanol] came in with an IC50 in experiment [3] of 600 nM.
In experiment [1] (oral 150 mg/kg), `CC1=CCC(OC(=O)[C@@H]2CCC(=O)N2)(C(C)C)CC1` (stereo partly drawn) [Example XIII, L-Pyroglutamate of terpin-4-enol] showed a Cholesterol level of 1.90 g/L and a Triglyceride level of 1.20 g/L. This compound also displayed an IC50 in experiment [3] of 210 nM.
Regarding `CC1=CCC(C(C)(C)OC(=O)[C@@H]2CCC(=O)N2)CC1` (stereo partly drawn) [Example XIV, L-Pyroglutamate of terpineol], in experiment [1] (oral 150 mg/kg), the Cholesterol level came to 2.12 g/L and the Triglyceride level was 1.10 g/L. Besides, in experiment [3], inhibition was half-maximal at 300 nM (IC50).
For the compound `O=C(O)c1cccnc1` [nicotinic acid, reference compound], in experiment [1] (oral 500 mg/kg), the Cholesterol level worked out at 5.00 g/L and the Triglyceride level amounted to 1.41 g/L.

The values are drawn from patent US5236946A, “Amino acid esters of cycloaliphatic alcohols and their use in treating lipemic disorders” (Panmedica S.A., priority 1986, dated 1993).
